Source: patent publication US9993002B2, “1,2,3-thiadiazol-5yl-urea derivatives, use thereof for regulating plant senescence and preparations containing these derivatives” (USTAV EXPERIMENTALNI BOTANIKY AV CR, V.V.I., priority 2014, dated 2018)

Legend:
[1] = test system: detached leaf segments of Triticum aestivum cv. Hereward; experiment: Senescence bioassay on wheat leaf segments in dark conditions; conditions: dark, 96 h, 25° C., chlorophyll absorbance 665 nm, read-out: Senescence bioassay (IC50)
Description: (§1) Seeds of winter wheat, Triticum aestivum cv. Hereward, were washed under running water for 24 hours and then sown on perlite soaked with Hogland's solution. They were placed in the growth chamber at 25° C. with a 16/8 h light period at 50 μmol·m^−2·s^−1. After 7 days, the first leaf was fully developed and the second leaf had started to grow. A tip section of the first leaf, approximately 4 cm long, was removed from 4 seedlings and trimmed slightly to a combined weight of 100 mg. The basal ends of the four leaf tips were placed into the 96-wells plate containing 150 μL of the tested derivative solution each. The entire plate was inserted into a plastic box lined with paper tissues soaked in distilled water to prevent leaf sections from drying out. After 96 h incubation in the dark at 25° C., the leaves were removed and chlorophyll extracted by heating at 80° C. for 10 min in 5 mL of 80% ethanol (v/v). The sample volume was then restored to 5 mL by the addition of 80% ethanol (v/v). The absorbance of the extract was recorded at 665 nm. In addition, chlorophyll extracts from fresh leaves and leaf tips incubated in deionised water were measured. The results are means of five replicates and the entire test was repeated at least twice. […] The compounds to be tested were dissolved in dimethylsulfoxide (DMSO) and the solution brought up to 10^−3 M with distilled water. […] The IC50 values were determined for standard (BAP) and novel tested compounds.

[2] = test system: detached leaf segments of Triticum aestivum cv. Hereward; experiment: Senescence bioassay on wheat leaf segments in dark/light conditions; conditions: foliar, 168 h, read-out: Senescence bioassay (IC50)
Description: as §1
The ability of the novel compounds to retard chlorophyll degradation in detached wheat leaves was tested also in the light conditions. The experiment was performed as described in Example 7 with modifications as follows—the incubation of the leaves with the compounds was done in the dark/light conditions 8/16 (light—100 μmol·m^−2·s^−1) at 22° C. for 7 days. […] The newly prepared substituted 1,2,3-thiadiazol-5-yl urea derivatives of the invention are much stronger anti-senescent compounds in comparison to the BAP in retarding senescence under optimal (dark/light) conditions.

[3] = test system: detached leaves of Triticum aestivum cv. Hereward; experiment: Membrane lipid peroxidation (MDA, TBA method) in detached wheat leaves in the dark; conditions: for MDA: four days in the dark
Description: A typical symptom associated with senescence as a direct consequence of increased reactive oxygen species is membrane lipid peroxidation which produces malondialdehyde (MDA). Therefore the levels of MDA, a decomposition product of lipid peroxidation, were measured in detached wheat leaves that were exposed to the prepared novel derivatives or BAP for four days in the dark as described in Example 7. MDA levels were measured using a thiobarbituric acid (TBA) method. In detail, 100 mg of fresh plant material was homogenized by high speed shaking in a ball mill (MM301, Retsch, Germany) with 1 mL of 70% methanol. The crude extract was centrifuged at 10,000×g for 5 min, and 100 μL aliquot of supernatant was vortexed with 100 μL of 0.5% (w/v) TBA containing 0.1% (w/v) trichloroacetic acid, and the resulting solution was then incubated for 30 min at 95° C. The samples were quickly cooled on ice and centrifuged for 5 min at 1000 g. The absorbance of supernatant was measured at 532 nm with background subtraction at 600 nm and the amount of MDA-TBA complex was calculated from the coefficient of absorbance 155 mM^−1 cm^−1.

[4] = test system: Arabidopsis thaliana (wild-type Col-0); experiment: Root growth and lateral root formation of Arabidopsis; assay type: in vivo; conditions: 10 nM; for Lateral root number / Primary root lenght: two weeks after transfer
Description: To investigate in vivo effect of the new derivatives on the root growth and development, seeds of Arabidopsis thaliana (wild-type Col-0) were surface sterilized and sown on vertical plates on half-strength Murashige-Skoog medium (supplied with 0.1% sucrose and 6 g/L phytagel) containing 10 nM BAP or 10 nM 1,2,3-thiadiazol-5-yl-urea derivative, or 0.01% DMSO (solvent control). After vernalization (4 days in the dark, 4° C.) plates were transferred into the growth chamber (22° C., 16/8 light/dark). Two weeks after transfer, seedlings were photographed and root elongation and lateral root formation was scored using Scion image software (Scion Corp., Frederick, Md., USA). At least 40 plants were measured for each treatment.

[5] = Toxicity towards human skin fibroblasts (Calcein AM assay); assay type: cell-based
Description: Cytotoxicity of the compounds to human skin fibroblasts (BJ cell line) was determined in a standard Calceinovém AM test. Cells were maintained in plastic tissue culture flasks and grown in Dulbecco's modified Eagle's medium for cell culture (DMEM) at 37° C. in 5% CO2 and 100% humidity. Cells were placed into 96-well microtiter plates (Nunc, Denmark) and after 12 hours pre-incubation, the tested compound was added to a final concentration ranging from […]. Cells were incubated for 72 hours. At the end of incubation period Calcein AM was added in PBS to a final concentration of […]. After 1 hour of incubation fluorescence was measured at 485/538 nm (ex/em wavelength) using Fluoroskan Ascent (Labsystems, Finland). IC50 values (the concentration causing reduction of calcein AM conversion to 50%) were calculated from the curves obtained. All experiments were repeated four times with a maximum deviation of 15%. Due to the limited solubility of substances in water, all the tested compounds were dissolved in DMSO and diluted with water to a final concentration.

wheat leaves = experiment: Ethylene production (defoliating activity) assay; set-up: species or system Triticum aestivum; conditions: 10 μM; for Ethylene produced: 96 h in the dark at 25° C., control 270 (±15)
Description: We investigated the effect of the compounds of the invention on ethylene production in wheat leaves. The leaves were obtained as described in Example 8, placed in 5 mL glass vials and immersed at 10 μM solutions of tested compounds of the invention or TDZ. Distilled water was used as a control treatment. After 96 h incubation in the dark at 25° C., 1 mL of air was taken from the vials and content of ethylene in it was determined using gas chromatography with the flame ionization detector (GC-FID) method described by Fišerová et al. (Fišerová H, Kula E, Klemš M, Reinöhl V (2001) Phytohormones as indicators of the degree of damage in birch (Betula pendula). Biológia 56: 405-409).

[6] = dark/light 8/16, 22° C., 7 days

Row | Compound | IC50 ([1]; Triticum aestivum, foliar) [µM] | IC50 [2, 6] [µM] | MDA [3] | Lateral root number [4] | Primary root lenght [4] | CC50 at 72 h [5] [µM] | Ethylene produced (wheat leaves) | other results
1 | COCCCNC(=O)Nc1cnns1 [Compound 7, 1-(3-methoxy-propyl)-3-[1,2,3]thiadiazol-5-yl-urea] | 11.4 | 0.4 | 14.4 (±0.8) nmol/g FW | 14 (±10) | 40 (±10) mm | > 100 | 312 (±18) nL/g FW | 
2 | O=C(NCCCO)Nc1cnns1 [Compound 2, 1-(3-hydroxy-propyl)-3-[1,2,3]thiadiazol-5-yl-urea] | 9.1 | 0.31 | 16.4 (±1.6) nmol/g FW | 12 (±6) | 39 (±9) mm | > 100 | 293 (±21) nL/g FW | 
3 | C=CCNC(=O)Nc1cnns1 [Compound 50, 1-Allyl-3-[1,2,3]thiadiazol-5-yl-urea] | 7.1 | 0.25 | 17.4 (±1.3) nmol/g FW | 14 (±10) | 42 (±12) mm | > 100 | 279 (±18) nL/g FW | 
4 | C#CCNC(=O)Nc1cnns1 [Compound 55, 1-prop-2-ynyl-3-[1,2,3]thiadiazol-5-yl-urea] | 22 |  | 14.1 (±1.1) nmol/g FW | 15 (±8) | 40 (±10) mm | > 100 |  | 
5 | COC(CNC(=O)Nc1cnns1)OC [Compound 16, 1-(2,2-dimethoxy-ethyl)-3-[1,2,3]thiadiazol-5-yl-urea] | 2.9 | 0.16 | 11.6 (±1.2) nmol/g FW | 19 (±9) | 45 (±9) mm | > 100 | 267 (±23) nL/g FW | 
6 | COCCCCNC(=O)Nc1cnns1 [Compound 8, 1-(4-methoxy-butyl)-3-[1,2,3]thiadiazol-5-yl-urea] | 25.5 |  |  |  |  |  |  | 
7 | CSCCCCCNC(=O)Nc1cnns1 [Compound 42, 1-(5-methylthio-pentyl)-3-[1,2,3]thiadiazol-5-yl-urea] | 10.5 |  |  |  |  |  |  | 
8 | CC(C)=CCNC(=O)Nc1cnns1 [Compound 21, 1-(3-methyl-but-2-enyl)-3-[1,2,3]thiadiazol-5-yl-urea] | 97 |  |  |  |  |  |  | 
9 | O=C(NCCCCCCBr)Nc1cnns1 [Compound 74, 1-(6-bromo-hexyl)-3-[1,2,3]thiadiazol-5-yl-urea] |  |  |  |  |  |  |  | level of membrane lipid peroxidation during dark senescence reduced to ([3]; compared to untreated control): 50.2%
10 | 1-(thiophen-2-yl-methyl)-3-[1,2,3]thiadiazol-5-yl-urea [Compound 78] |  |  |  |  |  |  |  | IC50 [1]: 45 µM
11 | 1-(3,4-dihydro-2H-pyran-2-yl-methyl)-3-[1,2,3]thiadiazol-5-yl-urea [Compound 82] |  |  |  |  |  |  |  | IC50 [1]: 25 µM
12 | CC(O)CNC(=O)Nc1cnns1 (stereo not shown) [Compound 25, 1-(2-Hydroxy-propyl)-3-[1,2,3]thiadiazol-5-yl-urea] | 3.5 | 0.1 | 12.6 (±0.83) nmol/g FW | 12 (±8) | 35 (±0.8) mm | > 100 | 281 (±31) nL/g FW | 
13 | C/C(=C\CNC(=O)Nc1cnns1)CO [Compound 20, 1-((E)-4-hydroxy-3-methyl-but-2-enyl)-3-[1,2,3]thiadiazol-5-yl-urea] | 12.6 | 0.61 | 15.8 (±0.7) nmol/g FW | 11 (±6) | 32 (±9) mm | > 100 | 254 (±22) nL/g FW | effect on ethylene evolution compared to control (in words) (wheat leaves; 96 h): inhibition of ethylene evolution
14 | COCCCCCNC(=O)Nc1cnns1 [Compound 9, 1-(5-methoxy-pentyl)-3-[1,2,3]thiadiazol-5-yl-urea] | 31 |  |  |  |  |  |  | 
15 | O=C(NCCCS)Nc1cnns1 [Compound 35, 1-(3-thio-propyl)-3-[1,2,3]thiadiazol-5-yl-urea] |  |  |  |  |  |  |  | IC50 [1]: 12 µM
16 | O=C(NCCO)Nc1cnns1 [Compound 1, 1-(2-hydroxy-ethyl)-3-[1,2,3]thiadiazol-5-yl-urea] | 26 |  |  |  |  |  |  | 
17 | O=C(NCCS)Nc1cnns1 [Compound 34, 1-(2-thio-ethyl)-3-[1,2,3]thiadiazol-5-yl-urea] |  |  |  |  |  |  |  | IC50 [1]: 18 µM
18 | 1-(thiophen-2-yl-methyl)-3-[1,2,3]thiadiazol-5-yl-urea [Compound 76] |  |  |  |  |  |  |  | IC50 [1]: 32 µM
19 | O=C(Nc1ccccc1)Nc1cnns1 [TDZ, thidiazuron, reference compound] |  |  |  | 2.1 (±2) | 10 (±4) mm |  | 628 (±45) nL/g FW | IC50 [2]: 1.1 µM; elevation of ethylene production compared to untreated control (wheat leaves; 96 h): 133%; times higher production of ethylene than the novel tested compounds (wheat leaves; 96 h): at least 5 times
20 | COCC(C)NC(=O)Nc1cnns1 (stereo not shown) [Compound 28, 1-(2-methoxy-1-methyl-ethyl)-3-[1,2,3]thiadiazol-5-yl-urea] | 8.6 | 0.43 | 13.9 (±0.9) nmol/g FW | 16 (±7) | 41 (±13) mm | > 100 | 246 (±12) nL/g FW | effect on ethylene evolution compared to control (in words) (wheat leaves; 96 h): inhibition of ethylene evolution
21 | c1ccc(CNc2ncnc3nc[nH]c23)cc1 [6-benzylaminopurine (BAP), 6-benzylaminopurine, reference compound] | 155 | 123 | 19.1 (±1.7) nmol/g FW | 3.6 (±2) | 15 (±5) mm |  |  | effect on peroxidation of membrane lipids (in words) ([3]; compared to untreated control): does not decrease the peroxidation of membrane lipids significantly; root development (in words) [4]: severely and significantly retarded
22 | COCCCCCCNC(=O)Nc1cnns1 [Compound 10, 1-(6-methoxy-hexyl)-3-[1,2,3]thiadiazol-5-yl-urea] | 45 |  |  |  |  |  |  | 
23 | CSCCNC(=O)Nc1cnns1 [Compound 39, 1-(2-methylthio-ethyl)-3-[1,2,3]thiadiazol-5-yl-urea] | 3.1 |  |  |  |  |  |  | 
